Patent US20130023534A1, “PYRAZOLYL-PYRIMIDINES AS KINASE INHIBITORS” (priority 2010, published 2013)

Target: T1, RIPK2 (Homo sapiens, UniProt O43353)
T1 construct: Full length FLAG His tagged RIPK2 was purified from a Baculovirus expression system; FLAG (N); 6His (N); made in house; host or cells: Spodoptera frugiperda (Sf9) insect cells, baculovirus
Assay: Fluorescent polarization based binding assay at the ATP binding pocket of RIPK2
Conditions: full length FLAG His tagged RIPK2; competition with fluorescently labeled ATP competitive ligand (5 nM); mean of a minimum of 2 experiments; read-out: mean pIC50 (converted)
From the text: A fluorescent polarization based binding assay was developed to quantitate interaction of novel test compounds at the ATP binding pocket of RIPK2, by competition with a fluorescently labeled ATP competitive ligand. Full length FLAG His tagged RIPK2 was purified from a Baculovirus expression system and was used at a final assay concentration of twice the KDapparent. A fluorescent labeled ligand (5-({[2-({[3-({4-[(5-hydroxy-2-methylphenyl)amino]-2-pyrimidinyl}amino)phenyl]carbonyl}amino)ethyl]amino}carbonyl)-2-(6-hydroxy-3-oxo-3H-xanthen-9-yl)benzoic acid, prepared as described below) was used at a final assay concentration of 5 nM. Both the enzyme and ligand were prepared in solutions in 50 mM HEPES pH7.5, 150 mM NaCl, 10 mM MgCl2, 1 mM DTT, and 1 mM CHAPS. Test compounds were prepared in 100% DMSO and 100 nL was dispensed to individual wells of a multiwell plate. Next, 5 ul RIPK2 was added to the test compounds at twice the final assay concentration, and incubated at room temperature for 10 minutes. […] Finally, samples were read on an instrument capable of measuring fluorescent polarization. Test compound inhibition was expressed as percent (%) inhibition of internal assay controls.
For concentration response experiments, normalized data were fit and pIC50s determined using conventional techniques. […]

T1 sequence (O43353 whole entry): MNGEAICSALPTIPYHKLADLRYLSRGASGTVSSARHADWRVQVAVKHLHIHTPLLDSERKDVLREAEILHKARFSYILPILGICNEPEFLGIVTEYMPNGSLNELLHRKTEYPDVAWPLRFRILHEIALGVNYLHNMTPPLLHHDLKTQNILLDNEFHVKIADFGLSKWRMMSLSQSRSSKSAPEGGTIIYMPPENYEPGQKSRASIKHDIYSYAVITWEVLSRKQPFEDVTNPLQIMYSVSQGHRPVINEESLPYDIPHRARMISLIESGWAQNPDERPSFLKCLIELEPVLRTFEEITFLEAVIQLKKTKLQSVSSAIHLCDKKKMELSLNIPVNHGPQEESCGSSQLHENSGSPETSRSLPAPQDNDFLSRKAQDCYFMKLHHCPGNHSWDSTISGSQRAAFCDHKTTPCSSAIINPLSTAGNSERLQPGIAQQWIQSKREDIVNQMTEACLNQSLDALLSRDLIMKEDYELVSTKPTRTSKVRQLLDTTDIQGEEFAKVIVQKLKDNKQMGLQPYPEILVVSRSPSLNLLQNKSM

| IC50 | Structure (SMILES) |
| --- | --- |
| 10 nM | COc1cc(Nc2nccc(Nc3[nH]nc(C)c3C)n2)cc(OC)c1OC [Example 1, N^4-(3,4-Dimethyl-1H-pyrazol-5-yl)-N^2-[3,4,5-tris(methyloxy)phenyl]-2,4-pyrimidinediamine] |
| 251 nM | COc1ccc(-n2nc(C(F)(F)F)cc2Nc2ccnc(Nc3ccc(OC)c(OC)c3)n2)cc1 [Example 21, N^2-[3,4-bis(methyloxy)phenyl]-N^4-[1-[4-(methyloxy)phenyl]-3-(trifluoromethyl)-1H-pyrazol-5-yl]-2,4-pyrimidinediamine] |
